Data published in publication PMC7352977 (Cancers, 2020).

How the values were obtained:
[1] = tested on: A549; test: MTT, wild-type KRAS A549 cell line; format: cell-based; settings: A549, compared with other tumor cell lines
[2] = tested on: SW480; test: Cell proliferation assay (CCK-8), SW480; format: cell-based; settings: SW480 (colon, KRAS G12V), 72 h, CCK-8, triplicate
Protocol: (§1) Cells (2 × 10^3/well, 100 μL final volume per well) for HCT116 and NCI-H460, 5 × 10^3 cells/well for SW480 and NCI-H23, and 1 × 10^4 cells/well for AsPC-1 cell lines were used in this assay (Table 4). All cells were allowed to attach for 24 h after plating, and the cells were treated with fresh media the next day. […] After the 72 h incubation, cell counting kit-8 (CCK-8) solution (10 μL/well) was added, and cells were incubated for a further 4 h at 37 °C CO2 incubator. The optical density (OD) of each well at 450 nm was measured by using the Microplate reader (BioTek, USA). Experiments were performed at least three times with representative data presented.

[3] = tested on: NCI-H460; test: Cell proliferation assay (CCK-8), NCI-H460; format: cell-based; settings: NCI-H460 (lung, KRAS Q61H), 72 h, CCK-8, triplicate
Protocol: as §1

[4] = tested on: NCI-H23; test: Cell proliferation assay (CCK-8), NCI-H23; format: cell-based; settings: NCI-H23 (lung, KRAS G12C), 72 h, CCK-8, triplicate
Protocol: as §1

[5] = tested on: KRAS wild-type; test: [α-32P] GTP binding assay, KRAS wild-type; format: biochemical, human; settings: H-REV107 peptide, 30 °C
Protocol: His-tagged human KRAS wild-type and mutants (G12V, G12D, G12C, G13D, and Q61H) and H-REV107 were transformed into Escherichia coli BL21 (DE3) cells. Each individual colony was inoculated into […] of Luria-Bertani (LB) medium enriched with 10 μg/mL kanamycin, after which the bacteria were grown for 16 h at 37 °C. These cells were then added to 2 L of LB containing antibiotics and grown at 37 °C until the OD600 reached 0.5–0.6. The expression of the proteins was induced by 0.5 mM isopropyl-thio-β-D-1-thiogalactopyranoside (IPTG) at 25 °C, after which the bacterial cells were harvested by centrifugation at 3830 × g for 25 min at 4 °C, then disrupted by sonication in lysis buffer (50 mM HEPES (pH 7.5), 100 mM NaCl, and 2 mM MgCl2). The supernatant was subsequently incubated with Ni-NTA resin (BioRad) for 10 min. After washing, the bound protein was eluted from the beads with elution buffer (50 mM HEPES (pH 7.5), 500 mM NaCl, 2 mM MgCl2, and 400 mM imidazole). The eluted protein was further purified by fast protein liquid chromatography (FPLC) using a Superdex 200 10/300 GL column equilibrated with 50 mM HEPES (pH 7.5), 100 mM NaCl, and 2 mM MgCl2. The purity and identity of the proteins were determined by 15% SDS-PAGE. […]
In addition, the protein complex was incubated with [α-^32P] […] Protein-bound radioactive nucleotide was quantified by liquid scintillation counting.

[6] = tested on: HCT116; test: Cell proliferation assay (CCK-8), HCT116; format: cell-based; settings: HCT116 (colon, KRAS G13D), 72 h, CCK-8, triplicate
Protocol: as §1

[7] = tested on: AsPC-1 pancreatic cancer cells (xenograft); test: Tumor xenograft model, AsPC-1, nude mice; format: in vivo; settings: abdominal cavity
Protocol: Five were deployed per group.
The cells used in the cancer animal model used human-specific pancreatic cancer cell liquor AsPC-1, which was defrosted more than 2 weeks before the animal model was created to obtain stable cell alcohol conditions, and were incubated three times. The growth medium used for cell culture was used by adding 10% fetal bovine serum and 1% penicillin/streptomycin to the RPMI-1640 medium used for AsPC-1 cell lines. On the day of the production of the cancer animal model, AsPC-1 cell line was removed from the cell culture flask by 0.25% Trypsin/EDTA and washed twice with PBS. The cell line was finally harried to HBSS + matrigel (1:1). Since the number of cells to be used in the experiment was 1 × 10^6/head, the finally disheveled cell concentration was 1 × 10^7/mL. It was stored in ice until the test was used. In the case of cell transplantation, 100 μL was transplanted. The separation was performed when the average volume of the tumor had grown to more than 100 mm^3. A random separation of groups was conducted to ensure that the average tumor volume was equal in the day of separation, and the separation of groups was carried out into a total of three groups.

[8] = Solubility in water; format: physicochemical
[9] = tested on: AsPC-1; test: Cell proliferation assay (CCK-8), AsPC-1; format: cell-based, human; settings: AsPC-1 (pancreas, KRAS G12D), 72 h, CCK-8, triplicate
Protocol: as §1

[10] = tested on: MEK/ERK signaling pathway; test: Western blot analysis of MEK/ERK signaling, AsPC-1; format: cell-based, human; settings: AsPC-1, 24 and 48 h
Protocol: (§2) Cells were plated in a 100 mm cell culture dish and incubated under standard conditions (37 °C under a humidified atmosphere containing 5% CO2) in RPMI-1640 media with 10% fetal bovine serum, 100 μ/mL penicillin, and 100 μ/mL streptomycin (Welgene, Korea). […] After treatment of 24, 48, and 72 h, the cells were lysed using protein extraction solution PRO-PREPTM (iNtRON Biotechnology, Korea) containing a protease inhibitor cocktail for 30 min at 4 °C. After this, the cells were centrifuged at 15,115 x g for 30 min. Protein content in the supernatant was measured with Bradford protein assay using bovine serum albumin (BSA). The protein was separated by 10% SDS-PAGE and transferred onto an immobilon-P membrane (Millipore, USA). Membrane was blocked in ProNA Protein-free 5X general or phospho-block solution (TransLab, Korea) for 1 h at room temperature. The membrane was incubated with primary antibodies against phosphorylated (p)-MEK1/2 (Ser217/221), total (t)-MEK1/2, p-ERK1/2 (Thr202/Tyr204), and t-ERK1/2 (Cell Signaling Technology, USA) at 4 °C overnight, washed with 1X PBS containing 0.1% Tween (PBST) three times, and incubated with anti-IgG secondary antibodies (Santa Cruz Biotechnology, USA) in PBST for 1 h. The transferred protein band was visualized with EzWestLumi plus (ATTO corporation, Japan). Probing for ß-acitn was used as a loading control.

[11] = tested on: MEK/ERK signaling pathway; test: Western blot analysis of MEK/ERK signaling, SW480; format: cell-based; settings: SW480, 24 and 48 h
Protocol: as §2

GI50 [2]: 358 µM
GI50 (in words) [3]: millimolar ranges
GI50 (in words) [4]: millimolar ranges
GTP binding activity to KRAS wild-type, decreased to [5]: 12%
GI50 (in words) [6]: millimolar ranges
solubility in water (in words) [8]: highly soluble
GI50 [9]: 417 µM
Sequence: LYDVAGSDKY [H-REV107 peptide]
effect on proliferation of wild-type KRAS A549 cell line (in words) [1]: higher concentration state of H-REV107 peptide had an effect on the proliferation
growth rate of tumors, high concentration group (in words) ([7]; 200 mg/kg): lowest growth rate
growth rate of tumors compared to Vehicle (in words) ([7]; H-REV107 peptide experimental group): lower growth rate of tumors
tumor volume compared to Vehicle (in words) ([7]; all doses (50 and 200 mg/kg), day 3 to day 32 after inoculation): decrease
expression level of total MEK/ERK protein (in words) [10]: little effect
phosphorylation levels of MEK/ERK, tendency to decrease (in words) [10]: little
expression level of total MEK/ERK protein (in words) [11]: little effect
phosphorylation levels of MEK/ERK (in words) [11]: decrease the phosphorylation levels of MEK/ERK
